Reference: ChEMBL document CHEMBL1126467, “Discovery of dual activity molecules with thromboxane antagonist and thromboxane synthase inhibitory activity” (Bioorg Med Chem Lett, 1992)

Columns and labels:
Thromboxane A2 receptor = target: T1, Thromboxane A2 receptor (Homo sapiens, UniProt P21731); assay: Tested for thromboxane antagonist potency (pA2) against […] induced platelet aggregation using human platelet rich plasma; type: functional, cell-free; settings: read-out: pA2 (converted)
T1 sequence (P21731 whole entry): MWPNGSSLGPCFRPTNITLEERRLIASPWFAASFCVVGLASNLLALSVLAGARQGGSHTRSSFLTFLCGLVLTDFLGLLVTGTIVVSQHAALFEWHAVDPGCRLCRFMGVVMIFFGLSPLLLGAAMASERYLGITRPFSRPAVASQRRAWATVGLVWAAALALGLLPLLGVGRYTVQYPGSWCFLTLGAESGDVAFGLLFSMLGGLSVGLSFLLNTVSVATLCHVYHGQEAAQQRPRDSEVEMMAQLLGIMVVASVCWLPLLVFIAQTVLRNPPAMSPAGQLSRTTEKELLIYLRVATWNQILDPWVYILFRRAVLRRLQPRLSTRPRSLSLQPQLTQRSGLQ

Thromboxane-A synthase [1] = target: T2, Thromboxane-A synthase (Homo sapiens, UniProt P24557); assay: Human microsomal Thromboxane synthase inhibition was determined by inhibiting TXB2 formation from [14C]- labelled arachidonic acid; Not active
T2 sequence (P24557 whole entry): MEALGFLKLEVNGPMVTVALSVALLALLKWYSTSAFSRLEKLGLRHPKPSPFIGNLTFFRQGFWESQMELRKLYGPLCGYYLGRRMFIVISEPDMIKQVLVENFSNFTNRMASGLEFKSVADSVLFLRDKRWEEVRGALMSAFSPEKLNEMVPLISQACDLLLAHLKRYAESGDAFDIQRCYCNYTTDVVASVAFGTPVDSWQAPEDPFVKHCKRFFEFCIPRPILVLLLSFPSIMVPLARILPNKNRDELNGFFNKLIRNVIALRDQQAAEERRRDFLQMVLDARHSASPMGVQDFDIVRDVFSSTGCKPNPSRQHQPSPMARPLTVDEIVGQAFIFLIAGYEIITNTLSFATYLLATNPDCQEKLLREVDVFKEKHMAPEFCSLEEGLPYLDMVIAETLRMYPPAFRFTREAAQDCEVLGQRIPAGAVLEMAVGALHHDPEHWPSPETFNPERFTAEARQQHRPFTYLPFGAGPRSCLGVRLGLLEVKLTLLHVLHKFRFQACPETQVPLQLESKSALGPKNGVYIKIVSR

Thromboxane-A synthase [2] = target: T2, Thromboxane-A synthase; assay: Human microsomal Thromboxane synthase inhibition was determined by inhibiting TXB2 formation from [14C]- labelled arachidonic acid
[3] = target: T3, Thromboxane A2 receptor (Rattus norvegicus) (UniProt P34978); assay: Compound was tested for in vivo inhibition of thromboxane A2 receptor inhibition 1 hr after administration of 10 mg/kg orally to rat; type: organism-based; parameters: dose 10 mg/kg; settings: at 10 mg/kg
T3 sequence (whole entry): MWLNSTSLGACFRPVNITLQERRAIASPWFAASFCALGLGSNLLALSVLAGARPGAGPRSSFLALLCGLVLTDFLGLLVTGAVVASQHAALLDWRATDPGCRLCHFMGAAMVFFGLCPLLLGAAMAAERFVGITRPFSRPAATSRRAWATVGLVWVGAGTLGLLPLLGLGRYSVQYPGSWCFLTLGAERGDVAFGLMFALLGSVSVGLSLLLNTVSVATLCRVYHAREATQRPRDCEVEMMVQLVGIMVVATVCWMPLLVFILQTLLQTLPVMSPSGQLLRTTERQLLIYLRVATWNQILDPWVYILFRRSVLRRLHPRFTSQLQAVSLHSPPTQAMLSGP

[4] = target: T3, Thromboxane A2 receptor (Rattus norvegicus); assay: Compound was tested for in vivo inhibition of thromboxane-A2 receptor inhibition 3 hr after administration of 10 mg/kg orally to rat; type: organism-based; parameters: dose 10 mg/kg; settings: at 10 mg/kg
[5] = target: T3, Thromboxane A2 receptor (Rattus norvegicus); assay: Compound was tested for in vivo inhibition of thromboxane-A2 receptor inhibition 5 hr after administration of 10 mg/kg orally to rat; type: organism-based; parameters: dose 10 mg/kg; settings: at 10 mg/kg

SMILES | Kb (Thromboxane A2 receptor) | IC50 (Thromboxane-A synthase [1]) | IC50 (Thromboxane-A synthase [2]) | inhibition [3] | inhibition [4] | inhibition [5]
O=C(O)CC1CCCc2c1n(Cc1cccnc1)c1ccc(F)cc21 (stereo not drawn) | 3160 nM | Not Active | – | – | – | –
O=C(O)CC1CCCc2c1n(Cc1cccc(OCCCCCc3cccnc3)c1)c1ccc(F)cc21 (stereo not drawn) | 3160 nM | – | 300 nM | – | – | –
O=C(O)CC1CCCc2c1n(Cc1ccc(OCCCCC#Cc3cccnc3)cc1)c1ccc(F)cc21 (stereo not drawn) | 200 nM | – | 400 nM | – | – | –
O=C(O)CC1CCCc2c1n(Cc1cccc(OCCCC#Cc3cccnc3)c1)c1ccc(F)cc21 (stereo not drawn) | 1000 nM | – | 50 nM | 86% | 77% | 71%
O=C(O)CC1CCCc2c1n(Cc1cccc(CCCCCc3cccnc3)c1)c1ccc(F)cc21 (stereo not drawn) | 3980 nM | – | 500 nM | – | – | –
O=C(O)CC1CCCc2c1n(Cc1cccc(OCCCCC#Cc3cccnc3)c1)c1ccc(F)cc21 (stereo not drawn) | 2510 nM | – | 40 nM | – | – | –
O=C(O)CC1CCCc2c1n(Cc1ccc(OCCCC#Cc3cccnc3)cc1)c1ccc(F)cc21 (stereo not drawn) | 158 nM | – | 600 nM | – | – | –
O=C(O)CC1CCCc2c1n(Cc1ccc(Cl)cc1)c1ccc(F)cc21 (stereo not drawn) | 79.4 nM | Not Active | – | – | – | –
O=C(O)CC1CCCc2c1n(Cc1cccc(OCCCCc3cccnc3)c1)c1ccc(F)cc21 (stereo not drawn) | 501 nM | – | 100 nM | – | – | –
O=C(O)CC1CCCc2c1n(Cc1cccc(OCCC/C=C\c3cccnc3)c1)c1ccc(F)cc21 (stereo not drawn) | 631 nM | – | 200 nM | – | – | –
